From patent publication US20190022039A1, “COMPOUND HAVING ENHANCING ACTIVITY FOR GLUCAGON-LIKE PEPTIDE-1 RECEPTOR ACTIONS” (AJINOMOTO CO., INC., priority 2016, published 2019)
pEC50: −log10 of the molar value.

Experiments:
KKAy mice [1] = test: Blood glucose increase suppressive effect in diabetes model mouse after whey protein and glucose load; type: in vivo; details: male KKAy mice, 3 mg/kg intraperitoneal
Method: 23-week-old male KKAy mice fasted overnight were randomly divided into 2 groups, and whey protein was orally administered to each mouse at 3 g/kg to induce endogenous GLP-1 secretion. At 30 min after whey protein administration, the compound of the present invention (compound 50) or administration medium (vehicle) was intraperitoneally administered to each mouse at 3 mg/kg, glucose was orally administered immediately thereafter at 2 g/kg, blood samples were collected from the tail vein over time, and the blood glucose level was measured.

[2] = tested on: isolated rat islets of Langerhans; test: Glucose-stimulated insulin secretion in isolated rat islets of Langerhans; type: cell-based
Method: The islets of Langerhans were isolated from the pancreas of male Wistar rats at around 10 weeks of age, according to a conventional method and using collagenase and Ficoll-Conray solution (Cryobiology, 2006, 52:90-8), and used for the activity evaluation of the compound.
The isolated islets were precultured in glucose-free Krebs Ringer Bicarbonate-Hepes buffer (KRBH: 129 mM NaCl, 4.7 mM KCl, 5.0 mM NaHCO3, 1.2 mM MgSO4, […], 2.5 mM CaCl2, 10 mM HEPES, pH 7.4) under the conditions of 37° C., 5% CO2 for 30 min and seeded in each well of a 24 well plate by 5 islets. […] The culture supernatant was recovered from each well after culturing for 1 hr, and the concentration of insulin secreted in the supernatant was measured using a commercially available measurement kit (manufactured by Morinaga Institute of Biological Science, Inc.). The insulin secretion amounts under respective stimulation conditions were calculated as secretion amounts relative to the secretion amount at 8.3 mM glucose.

human GLP-1R = target: T1, human GLP-1R (Homo sapiens, UniProt P43220); test: GLP-1 receptor in vitro calcium assay (intracellular free calcium concentration change induced via GLP-1 receptor); type: cell-based; details: for pEC50: PRG48 cells transfected with human GLP-1R, compound added with 250 pM GLP-1, Ca2+ response ΔF/F, read-out: Ca EC50 value; for GLP-1 receptor action enhancing activity (vs BETP): intensity compared to BETP, activity of BETP as 1
T1 construct: expressed in transfected cells; host or cells: PEAK RAPID-derived Gα15-trans48 LD stably expressing cells (PRG48), transiently transfected with Lipofectamine 2000
T1 sequence (P43220 24-463): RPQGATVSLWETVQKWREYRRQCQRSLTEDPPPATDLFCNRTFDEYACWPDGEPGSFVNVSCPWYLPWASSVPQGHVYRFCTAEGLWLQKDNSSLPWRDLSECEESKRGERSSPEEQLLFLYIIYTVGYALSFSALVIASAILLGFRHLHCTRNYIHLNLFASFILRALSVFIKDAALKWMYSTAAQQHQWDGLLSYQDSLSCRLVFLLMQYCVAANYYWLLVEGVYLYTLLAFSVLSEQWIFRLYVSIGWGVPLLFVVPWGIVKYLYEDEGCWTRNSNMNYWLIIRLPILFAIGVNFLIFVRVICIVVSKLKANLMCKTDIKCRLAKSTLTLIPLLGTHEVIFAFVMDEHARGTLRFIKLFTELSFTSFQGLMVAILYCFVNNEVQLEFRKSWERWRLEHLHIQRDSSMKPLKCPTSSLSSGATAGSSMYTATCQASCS
In short: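 PRG48 cells transiently transfected with human GLP-1R and loaded with calcium dye in HEPES buffer containing probenecid. Compound added together with 250 pM GLP-1; fluorescence (Ex480/Em540) recorded before and after addition. ΔF/F computed and EC50 fitted from it.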

KKAy mice [3] = test: Food intake-suppressive effect in diabetes model mouse; type: in vivo; details: male KKAy mice fasted overnight, 3 mg/kg oral in simulated intestinal fluid, 4 hr after administration, vs simulated intestinal fluid group (FIG. 3)
Method: 11-week-old male KKAy mice were randomly divided into 2 groups. After fasting overnight, simulated intestinal fluid (containing 10 mM taurocholic acid, 2 mM lecithin, 55 mM maleic acid, 81.6 mM sodium hydroxide, 125 mM sodium chloride), or the compound of the present invention (compound 96) dissolved in the simulated intestinal fluid was orally administered (3 mg/kg), a commercially available feed (CRF-1, manufactured by Oriental Yeast Co., ltd.) was given and changes in the food intake was monitored.

pEC50 (human GLP-1R) | GLP-1 receptor action enhancing activity (vs BETP) (human GLP-1R) | SMILES | blood glucose at the time of peak (KKAy mice [1]; 30 min after whey protein 3 g/kg, glucose 2 g/kg oral, peak 30 min after glucose (FIG. 2A)) | blood glucose AUC value (KKAy mice [1]; 180 min after glucose administration, p<0.05 vs vehicle (FIG. 2B)) [mg·h/dL] | insulin secretion ([2]; 30 μM compound 50 alone in buffer containing 8.3 mM glucose, 1 hr) | increase in insulin secretion amount as compared to 8.3 mM glucose alone ([2]; simultaneous addition of 30 μM compound 50 and 1 nM exendin-4, 8.3 mM glucose, 1 hr (FIG. 1)) | cumulative food consumption (KKAy mice [3])
8.17 | 3720 | CCCCC(CC)CNC(=O)[C@H](CC1CCCCC1)NC(=O)Nc1ccc(NS(=O)(=O)c2ccc(C(C)(C)C)cc2)cc1 (stereo partly drawn) [Compound 50] | suppression of blood glucose increase at the time of peak | 734.3 ± 65.9 | did not affect insulin secretion | about 2 fold | 
6.22 | 42 | CCCCCCNC(=O)[C@@H](Cc1cccnc1)NC(=O)Nc1ccc(NS(=O)(=O)c2ccc(C(C)(C)C)cc2)cc1 [Compound 96] |  |  |  |  | significant suppression
